# Test system: HCV replicon
# Assay: Replicon based assay of HCV replication inhibition (NPT ELISA)
# Assay type: cell-based, Hepatitis C virus
# Details: Hepatitis C virus, Huh-7, 72 h, Table I; Huh-7 HCV replicon-containing cells, three days; read-out: Activity
# Outline: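 NPT (neomycin phosphotransferase) content, proportional to replicon replication, quantified by capture ELISA on day four. Before that, replicon-bearing Huh-7 cells in G418-free screening medium were exposed three days at 37° C to compound, typically six doses from 10 to 0.03 micromolar, with equal DMSO across wells.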
row,Structure (SMILES),EC50
1,"CCCCCOc1ccc(N(C)c2nc(C(=O)Nc3ccc(C#N)cc3)cs2)cc1C(F)(F)F [compound 160, 2-(N-(3-(trifluoromethyl)-4-(pentyloxy)phenyl)-N-methylamino)-N-(4-cyanophenyl)thiazole-4-carboxamide]",> 10 µM
2,"CCCCCOc1ccc(Nc2nc(-c3ccc(C)nc3)cs2)cc1C(F)(F)F [compound 154, N-(3-(trifluoromethyl)-4-(pentyloxy)phenyl)-4-(6-methylpyridin-3-yl)thiazol-2-amine]",< 1 µM
3,"CCCCCOc1ccc(Nc2nc(-c3cc(C(=O)OCC)no3)cs2)cc1C(F)(F)F [compound 202, ethyl 5-(2-(3-(trifluoromethyl)-4-(pentyloxy)phenylamino)thiazol-4-yl)isoxazole-3-carboxylate]",< 1 µM
4,"CCCCCOc1ccc(Nc2nc(-c3ccccc3Cl)cs2)cc1C(F)(F)F [compound 203, 4-(2-chlorophenyl)-N-(3-(trifluoromethyl)-4-(pentyloxy)phenyl)thiazol-2-amine]",< 1 µM
5,"Fc1ccc(-c2csc(Nc3cccc(Oc4ccccc4)c3)n2)cc1 [compound 31, 4-(4-fluorophenyl)-N-(3-phenoxyphenyl)thiazol-2-amine]",< 1 µM
6,"CCCCCOc1ccc(Nc2nc(-c3ccc(OCC(=O)OCC)cc3)c(C)s2)cc1C(F)(F)F [compound 139, ethyl 2-(4-(2-(3-(trifluoromethyl)-4-(pentyloxy)phenylamino)-5-methylthiazol-4-yl)phenoxy)acetate]",< 1 µM
7,"c1cc(Nc2nc(-c3cccnc3)cs2)cc(OC2Cc3ccccc3C2)c1 [compound 70, N-(3-(2,3-dihydro-1H-inden-2-yloxy)phenyl)-4-(pyridin-3-yl)thiazol-2-amine]",< 1 µM
8,"FC(F)(F)c1cc(Nc2nc(-c3ccc(Cl)c(Cl)c3)cs2)ccc1Cl [compound 60, N-(4-chloro-3-(trifluoromethyl)phenyl)-4-(3,4-dichlorophenyl)thiazol-2-amine]",< 1 µM

# Same assay, conditions: Hepatitis C virus, Huh-7, 72 h, Table III; Huh-7 HCV replicon-containing cells, three days; read-out: Activity
row,Structure (SMILES),EC50
1,"CCCCCCCCOc1ccc(Nc2nc3c(s2)CCc2ccncc2-3)cc1 [compound 593, 4,5-dihydro-N-(4-(octyloxy)phenyl)thiazolo[5,4-h]isoquinolin-2-amine]",< 1 µM
2,"CCCC/C=C\CCOc1ccc(Nc2nc(-c3cccnc3)cs2)cc1C(F)(F)F [compound 531, N-(4-((Z)-oct-3-enyloxy)-3-(trifluoromethyl)phenyl)-4-(pyridin-3-yl)thiazol-2-amine]",< 1 µM
3,"CCCCCCCCN(C)c1ccc(Nc2nc(-c3ccc(-c4ccccn4)s3)cs2)cc1C(F)(F)F [compound 576, 2-(trifluoromethyl)-N^1-methyl-N^1-octyl-N^4-(4-(5-(pyridin-2-yl)thiophen-2-yl)thiazol-2-yl)benzene-1,4-diamine]",< 1 µM
4,"CCCCCCCCN(C)c1ccc(Nc2nc(Cc3ccc(OC)cc3)cs2)cc1 [compound 644, N^1-(4-(4-methoxybenzyl)thiazol-2-yl)-N^4-methyl-N^4-octylbenzene-1,4-diamine]",> 10 µM
5,"CCCC/C=C\CCOc1ccc(Nc2nc(-c3ccc(C)nc3)cs2)cc1C(F)(F)F [compound 532, N-(4-((Z)-oct-3-enyloxy)-3-(trifluoromethyl)phenyl)-4-(6-methylpyridin-3-yl)thiazol-2-amine]",< 1 µM
6,"CCCCCCCCOc1ccc(Nc2nc(-c3ccc4nccn4c3)cs2)cc1C(F)(F)F [compound 673, N-(3-(trifluoromethyl)-4-(octyloxy)phenyl)-4-(H-imidazo[1,2-a]pyridin-6-yl)thiazol-2-amine]",< 1 µM
7,"CCCCCCCCOc1ccc(Nc2nc(-c3ccc4[nH]c(=O)oc(=O)c4c3)cs2)cc1C(F)(F)F [compound 665, 6-(2-(3-(trifluoromethyl)-4-(octyloxy)phenylamino)thiazol-4-yl)-1H-benzo[d][1,3]oxazine-2,4-dione]",< 1 µM
8,"CCCCCCCCOc1ccc(Nc2nc(-c3cccc4nsnc34)cs2)cc1C(F)(F)F [compound 664, 4-(benzo[c][1,2,5]thiadiazol-4-yl)-N-(3-(trifluoromethyl)-4-(octyloxy)phenyl)thiazol-2-amine]",< 1 µM
9,"CCCCCCCCOc1ccc(Nc2nc(-c3cncnc3-c3ccccc3)cs2)cc1C(F)(F)F [compound 702, N-(3-(trifluoromethyl)-4-(octyloxy)phenyl)-4-(4-phenylpyrimidin-5-yl)thiazol-2-amine]",< 1 µM

# Same assay, conditions: Hepatitis C virus, replicon based assay of HCV replication inhibition; Table II; read-out: Activity
row,Structure (SMILES),EC50
1,"CCCCCCOc1ccc(Nc2nc(-c3ccc(F)cc3)cs2)cc1 [compound 452, 4-(4-fluorophenyl)-N-(4-(hexyloxy)phenyl)thiazol-2-amine]",< 1 µM
2,"FC(F)(F)c1cc(Nc2nc(-c3cccnc3)cs2)ccc1OCCCC1CCCC1 [compound 495, N-(4-(3-cyclopentylpropoxy)-3-(trifluoromethyl)phenyl)-4-(pyridin-3-yl)thiazol-2-amine]",< 1 µM
3,"COc1ccc(CNc2nc(-c3ccc(F)cc3)c(C)s2)cc1 [compound 351, N-(4-methoxybenzyl)-4-(4-fluorophenyl)-5-methylthiazol-2-amine]",> 10 µM
4,"COc1ccc(-c2nc(Nc3cccc(C(F)(F)F)c3)sc2-c2ccc(OC)cc2)cc1 [compound 333, 4,5-bis(4-methoxyphenyl)-N-(3-(trifluoromethyl)phenyl)thia-zol-2-amine]",1 to 10 µM
5,CCCCCOc1ccc(Nc2nc(-c3ccc(Cl)s3)cs2)cc1C(F)(F)F [compound 405],< 1 µM
6,"COc1ccc(C2CCCCC2)cc1Nc1nc(-c2cccnc2)cs1 [compound 299, N-(5-cyclohexyl-2-methoxyphenyl)-4-(pyridin-3-yl)thiazol-2-amine]",1 to 10 µM
7,"CCCCCCCCOc1ccc(Nc2nc(-c3ccc(-c4ccccn4)s3)cs2)cc1 [compound 387, N-(4-(octyloxy)phenyl)-4-(5-(pyridin-2-yl)thiophen-2-yl)thiazol-2-amine]",< 1 µM
8,"CCCCCCCOc1ccc(Nc2nc(-c3ccc(F)nc3)cs2)cc1 [compound 487, 4-(6-fluoropyridin-3-yl)-N-(4-(heptyloxy)phenyl)thiazol-2-amine]",< 1 µM
9,"CCCCCCCOc1ccc(Nc2nc(-c3nc4ccccc4s3)cs2)cc1 [compound 400, 4-(benzo[d]thiazol-2-yl)-N-(4-(heptyloxy)phenyl)thiazol-2-amine]",1 to 10 µM
10,CCCCCCCOc1ccc(Nc2nc(-c3sc(-c4cnccn4)nc3C)cs2)cc1 [compound 402],< 1 µM
11,"CCCCCOc1ccc(Nc2nc(-c3ccc(OC)nc3)cs2)cc1C(F)(F)F [compound 378, 4-(6-methoxypyridin-3-yl)-N-(4-(pentyloxy)-3-(trifluoromethyl)phenyl)thia-zol-2-amine]",< 1 µM

# Same assay, conditions: Hepatitis C virus, replicon based assay of HCV replication inhibition; Table IV; read-out: Activity
row,Structure (SMILES),EC50
1,"Fc1ccc(C(F)(F)F)cc1Nc1nc(-c2cccnc2)cs1 [compound 888, N-(2-fluoro-5-(trifluoromethyl)phenyl)-4-(pyridin-3-yl)thiazol-2-amine]",1 to 10 µM
2,"Fc1cc(Nc2nc(-c3cccnc3)cs2)ccc1OCCCc1ccco1 [compound 861, N-(4-(3-(furan-2-yl)propoxy)-3-fluorophenyl)-4-(pyridin-3-yl)thiazol-2-amine]",< 1 µM
3,"c1cncc(-c2csc(Nc3nc(-c4ccc5ccccc5c4)cs3)n2)c1 [compound 815, 4-(naphthalen-2-yl)-N-(4-(pyridin-3-yl)thiazol-2-yl)thiazol-2-amine]",1 to 10 µM

# Reference: patent US8088806B2 (Achillion Pharmaceuticals, Inc., priority 2005, dated 2012)
